The supplement of paper PMC11208160

Experiment: recombinant UMI read abundance after kanamycin selection (control-corrected) (log10(CPM+1)); higher = more efficient recombination; extreme values may be limits of the assay; sequences stand for … in AGTGCAGAGAAAATCGGCCAGTTTTCTCTGCCTGCAGTCCGCATGCCGTGGGACCCCTTGGGTTCTAACCTGTTGCCTAGATTTATGCAGCGGACTGCCTTTCTCCCAAAGTGATAAACCGG…AGGTTGGTTTCACT; site = the 11-nt donor
Outline: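 Each donor and donor-binding-loop pair was tracked by a 12-nt UMI on a plasmid carrying a promoterless kanamycin gene. With a second plasmid supplying a fixed target and T7-inducible IS621 bridge recombinase, the pool was plated in Escherichia coli on IPTG (0.07 mM) plus kanamycin or unselected. Sequencing of recombinant UMIs across the donor–target junction gave counts expressed as log10(CPM+1) after replicate averaging and control-derived scaling.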
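Note: IS621 bridge recombinase in Escherichia coli cells against a fixed T5 target plasmid.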

Sequence | recombinant UMI read abundance (log10)
CCATCTACATGGACCGGTTTTCCCGGTAATCCGTATTTGTG (site GCATCTACTCA) | 0.00588
CCATCTACATGGACCGGTTTTCCCGGTAATCCGTATTTGTG (site TCATCTACTCA) | 0
CCATCTGCATGGACCGGTTTTCCCGGTAATCCGTATTTGAA (site CCATCTGCTTT) | 1.91
CCATGGGCATGGACCGGTTTTCCCGGTAATCCGTATTTGAG (site CCATGGGCTCT) | 0.633
CCATGGTCATGGACCGGTTTTCCCGGTAATCCGTATTTGAA (site CCATGGTCTTT) | 0.724
CCATGTGCATGGACCGGTTTTCCCGGTAATCCGTATTTGAA (site CCATGTGCTTT) | 0.336
CCCACCCCATGGACCGGTTTTCCCGGTAATCCGTATTTGGC (site CCCACCCCTGC) | 0
CCCACTACATGGACCGGTTTTCCCGGTAATCCGTATTTGTT (site CCCACTACTAA) | 0.141
CCCAGTCCATGGACCGGTTTTCCCGGTAATCCGTATTTGCA (site CCCAGTCCTTG) | 0
CCCAGTCCATGGACCGGTTTTCCCGGTAATCCGTATTTGCA (site CCCCGTCCTTG) | 0
CCCAGTCCATGGACCGGTTTTCCCGGTAATCCGTATTTGCA (site CCCGGTCCTTG) | 0.00873
CCCAGTCCATGGACCGGTTTTCCCGGTAATCCGTATTTGCA (site CCCTGTCCTTG) | 0.0169
CCCATATCATGGACCGGTTTTCCCGGTAATCCGTATTTGAT (site CCCATATCTAT) | 0
CCCATATCATGGACCGGTTTTCCCGGTAATCCGTATTTGTA (site CCCATATCTAA) | 0.0053
CCCATATCATGGACCGGTTTTCCCGGTAATCCGTATTTGTA (site CCCATATCTCA) | 0.0171
CCCATATCATGGACCGGTTTTCCCGGTAATCCGTATTTGTA (site CCCATATCTGA) | 0
CCCATATCATGGACCGGTTTTCCCGGTAATCCGTATTTGTA (site CCCATATCTTA) | 0.903
CCCATATCATGGACCGGTTTTCCCGGTAATCCGTATTTGTC (site ACCATATCTGA) | 0
CCCATATCATGGACCGGTTTTCCCGGTAATCCGTATTTGTC (site CACATATCTGA) | 0
CCCATATCATGGACCGGTTTTCCCGGTAATCCGTATTTGTC (site CCAATATCTGA) | 0
CCCATATCATGGACCGGTTTTCCCGGTAATCCGTATTTGTC (site CCCAAATCTGA) | 0
CCCATATCATGGACCGGTTTTCCCGGTAATCCGTATTTGTC (site CCCACATCTGA) | 0
CCCATATCATGGACCGGTTTTCCCGGTAATCCGTATTTGTC (site CCCAGATCTGA) | 0
CCCATATCATGGACCGGTTTTCCCGGTAATCCGTATTTGTC (site CCCATAACTGA) | 0
CCCATATCATGGACCGGTTTTCCCGGTAATCCGTATTTGTC (site CCCATACCTGA) | 0.34

Sequence | recombinant UMI read abundance (log10)
CCCATATCATGGACCGGTTTTCCCGGTAATCCGTATTTGTC (site CCCATAGCTGA) | 0
CCCATATCATGGACCGGTTTTCCCGGTAATCCGTATTTGTC (site CCCATATCTAA) | 0.00469
CCCATATCATGGACCGGTTTTCCCGGTAATCCGTATTTGTC (site CCCATATCTCA) | 0
CCCATATCATGGACCGGTTTTCCCGGTAATCCGTATTTGTC (site CCCATATCTGA) | 0.747
CCCATATCATGGACCGGTTTTCCCGGTAATCCGTATTTGTC (site CCCATATCTGC) | 0
CCCATATCATGGACCGGTTTTCCCGGTAATCCGTATTTGTC (site CCCATATCTGG) | 0
CCCATATCATGGACCGGTTTTCCCGGTAATCCGTATTTGTC (site CCCATATCTGT) | 0
CCCATATCATGGACCGGTTTTCCCGGTAATCCGTATTTGTC (site CCCATATCTTA) | 0
CCCATATCATGGACCGGTTTTCCCGGTAATCCGTATTTGTC (site CCCATCTCTGA) | 0
CCCATATCATGGACCGGTTTTCCCGGTAATCCGTATTTGTC (site CCCATGTCTGA) | 0
CCCATATCATGGACCGGTTTTCCCGGTAATCCGTATTTGTC (site CCCATTTCTGA) | 0.731
CCCATATCATGGACCGGTTTTCCCGGTAATCCGTATTTGTC (site CCCCTATCTGA) | 0
CCCATATCATGGACCGGTTTTCCCGGTAATCCGTATTTGTC (site CCCGTATCTGA) | 0
CCCATATCATGGACCGGTTTTCCCGGTAATCCGTATTTGTC (site CCCTTATCTGA) | 0.395
CCCATATCATGGACCGGTTTTCCCGGTAATCCGTATTTGTC (site CCGATATCTGA) | 0
CCCATATCATGGACCGGTTTTCCCGGTAATCCGTATTTGTC (site CCTATATCTGA) | 0
CCCATATCATGGACCGGTTTTCCCGGTAATCCGTATTTGTC (site CGCATATCTGA) | 0
CCCATATCATGGACCGGTTTTCCCGGTAATCCGTATTTGTC (site CTCATATCTGA) | 0
CCCATATCATGGACCGGTTTTCCCGGTAATCCGTATTTGTC (site GCCATATCTGA) | 0
CCCATATCATGGACCGGTTTTCCCGGTAATCCGTATTTGTC (site TCCATATCTGA) | 0
CCCCAAACATGGACCGGTTTTCCCGGTAATCCGTATTTGTA (site CCCCAAACTTA) | 0.19
CCCCAAACATGGACCGGTTTTCCCGGTAATCCGTATTTGTA (site CCCCACACTTA) | 0.0105
CCCCAAACATGGACCGGTTTTCCCGGTAATCCGTATTTGTA (site CCCCAGACTTA) | 0.00667
CCCCAAACATGGACCGGTTTTCCCGGTAATCCGTATTTGTA (site CCCCATACTTA) | 0.102
CCCCACCCATGGACCGGTTTTCCCGGTAATCCGTATTTGTA (site CCCCACACTTA) | 0.0263

Sequence | recombinant UMI read abundance (log10)
CCCCACCCATGGACCGGTTTTCCCGGTAATCCGTATTTGTA (site CCCCACCCTTA) | 0.00842
CCCCACCCATGGACCGGTTTTCCCGGTAATCCGTATTTGTA (site CCCCACGCTTA) | 0.0484
CCCCACCCATGGACCGGTTTTCCCGGTAATCCGTATTTGTA (site CCCCACTCTTA) | 1.78
CCCCACTCATGGACCGGTTTTCCCGGTAATCCGTATTTGAC (site CCCCACTCTGT) | 1.04
CCCCATACATGGACCGGTTTTCCCGGTAATCCGTATTTGTA (site CCCCAAACTTA) | 0
CCCCATACATGGACCGGTTTTCCCGGTAATCCGTATTTGTA (site CCCCACACTTA) | 0.0183
CCCCATACATGGACCGGTTTTCCCGGTAATCCGTATTTGTA (site CCCCAGACTTA) | 0
CCCCATACATGGACCGGTTTTCCCGGTAATCCGTATTTGTA (site CCCCATACTTA) | 0.512
CCCCGTCCATGGACCGGTTTTCCCGGTAATCCGTATTTGCA (site CCCAGTCCTTG) | 0
CCCCGTCCATGGACCGGTTTTCCCGGTAATCCGTATTTGCA (site CCCCGTCCTTG) | 0.809
CCCCGTCCATGGACCGGTTTTCCCGGTAATCCGTATTTGCA (site CCCGGTCCTTG) | 0.0123
CCCCGTCCATGGACCGGTTTTCCCGGTAATCCGTATTTGCA (site CCCTGTCCTTG) | 0.00689
CCCCTCCCATGGACCGGTTTTCCCGGTAATCCGTATTTGCG (site CCCCTCCCTCG) | 0.014
CCCGACACATGGACCGGTTTTCCCGGTAATCCGTATTTGTA (site CCCAACACTTA) | 0.221
CCCGACACATGGACCGGTTTTCCCGGTAATCCGTATTTGTA (site CCCCACACTTA) | 0.00237
CCCGACACATGGACCGGTTTTCCCGGTAATCCGTATTTGTA (site CCCGACACTTA) | 0.974
CCCGACACATGGACCGGTTTTCCCGGTAATCCGTATTTGTA (site CCCTACACTTA) | 0.0106
CCCGCGTCATGGACCGGTTTTCCCGGTAATCCGTATTTGTC (site CCCGCGTCTGA) | 0.515
CCCGGTACATGGACCGGTTTTCCCGGTAATCCGTATTTGCA (site CCCGGTACTTG) | 0.751
CCCGGTACATGGACCGGTTTTCCCGGTAATCCGTATTTGCA (site CCCGGTCCTTG) | 0
CCCGGTACATGGACCGGTTTTCCCGGTAATCCGTATTTGCA (site CCCGGTGCTTG) | 0
CCCGGTACATGGACCGGTTTTCCCGGTAATCCGTATTTGCA (site CCCGGTTCTTG) | 0
CCCGGTGCATGGACCGGTTTTCCCGGTAATCCGTATTTGAT (site CCAGGTGCTAT) | 0.119
CCCGGTGCATGGACCGGTTTTCCCGGTAATCCGTATTTGAT (site CCCGGTGCTAT) | 0.907
CCCGGTGCATGGACCGGTTTTCCCGGTAATCCGTATTTGAT (site CCGGGTGCTAT) | 0.0111
